“And” between values parts separate entries of the source, which are not always exact repeats. Equal values may be shown once. Read-outs that look alike come from different tables or passages of the source.
Columns and labels:
[1] = target: T1, SARS-CoV-2 NSP3 Mac1 (Severe acute respiratory syndrome coronavirus 2, UniProt P0DTD1); format: binding; parameters: contains a conserved macrodomain enzyme (Mac1); settings: for Spearman est (compound concentration vs apparent Tm): DSF dose responsiveness, 1 µM nsp3 mac1, adj p given; for DSF max dTma: maximal thermal upshift
Protocol: DSF and associated compound handling was performed as described ([12]), with 5 µM dye “Fluorescent Yellow” (Jacquard iDye Cat #JID1405) used in place of SYPRO Orange. Compounds were tested in triplicate, at seven concentrations in two-fold serial dilutions, at a top concentration of either 1,000 or 100 μM. To minimize experimental noise arising from plate location-based effects on Tma, all concentrations and replicates for each compound were tested within a single region of the microtiter plates, including a DMSO-only control from which ΔTmas were calculated for that compound. […] For each compound, to determine statistical significance of the dose responsive thermal shift, the Spearman’s coefficient was calculated between compound concentration and ΔTma.

[2] = target: T1, SARS-CoV-2 NSP3 Mac1; format: binding; settings: for Refined occupancy: ligand occupancy after refinement (phenix.refine); for HIT*: true hit = binding in crystallographic soaking or the HTRF-based binding assay
[3] = PanDDA 1-BDC value of the event, crystal soak, compound concentration 100 mM, per dataset
[4] = PanDDA event map, 1 minus background density correction, crystal soaking of Mac1
[5] = crystal soak, compound concentration 100 mM, per dataset
[6] = ligand modeled in the crystal structure, crystal soak, compound concentration 100 mM, per dataset
[7] = ligand modeled from this dataset, compound concentration 100 mM

SMILES	Spearman est (compound concentration vs apparent Tm) [1]	DSF max dTma [1]	1-BDC [2, 4]	Refined occupancy ([2]; crystal soaking of Mac1)	HIT* [2]	also measured
Cc1nnc2n1CC(C(=O)O)N(C(=O)c1ccc(NC(=O)NC3CC3)cc1)C2 (stereo not drawn) [8539_0037]	0.16	2.36 ˚C	0.4	80	Y	1-BDC [2, 3]: 0.4; PanDDA hit? [2, 5]: TRUE; Modeled? [2, 6]: TRUE
O=C(Nc1ccc(C(=O)N2CC(C(=O)O)Cc3ccccc32)cc1)NC1CC1 (stereo not drawn) [8539_0038]	0.19	0.98 ˚C	0.06	12	Y	1-BDC [2, 3]: 0.06; PanDDA hit? [2, 5]: TRUE; Modeled? [2, 6]: TRUE
Cn1nc(O)c2c1CN(C(=O)c1cc(O)cc(=O)o1)CC2 [FRESH00002410346]	−0.34	0.09 ˚C	0.07	14	Y	1-BDC [2, 3]: 0.07; PanDDA hit? [2, 5]: TRUE; Modeled? [2, 6]: TRUE
Cc1cc(S(=O)(=O)Nc2cnc3[nH]ccc3c2)n(C2CCCC2)n1 [FRESH00010608284]	−0.51	0.06 ˚C	0.15	30	Y	–
CC1(C)CCC(C(=O)O)CN1C(=O)c1ncnc2[nH]ccc12 (stereo not drawn) [FRESH00012962804]	0.54	0.62 ˚C	0.22	44	Y	1-BDC ([2]; PanDDA event map, 1-BDC of the hit dataset, crystal soak, compound concentration 100 mM, listed as F2804): 0.32 and 0.28
CC1(C(=O)O)CCN(C(=O)Cc2c[nH]c3nccc(Cl)c23)C1 (stereo not drawn) [FRESH00014134848]	0.41	0.07 ˚C	0.11	22	Y	–
CNS(=O)(=O)c1cc(C(=O)N2CCc3nc(N)ncc3C2)co1 [FRESH00014649046]	0.3	0.29 ˚C	–	12	Y	1-BDC [2, 3]: 0.07; 1-BDC (PanDDA) [2, 4]: 0.06; PanDDA hit? [2, 5]: TRUE; Modeled? [2, 7]: TRUE
O=c1nc(N2CC(Cn3cnnc3)C3(CCC3)C2)cc(Cl)[nH]1 (stereo not drawn) [FRESH00020289192]	−0.17	0.04 ˚C	0.08	16	Y	–
O=C(O)[C@@H]1CCCN(C(=O)c2ccnc3[nH]ccc23)C1 [REAL250000548538]	0.27	0.25 ˚C	0.08	16	Y	Modeled? [2, 7]: TRUE
O=C(c1cn[nH]c(=O)c1)N1CCC(CF)(C(=O)O)C1 (stereo not drawn) [REAL250001448407]	−0.24	0 ˚C	0.12	24	Y	–
CN(CCCC(=O)O)C(=O)c1ncnc2[nH]ccc12 [REAL250002155324]	−0.27	0.12 ˚C	0.12	24	Y	–
O=C(O)C[C@@H]1CCCN(c2ncnc3nc[nH]c23)C1 [REAL250002852032]	0.29	0.58 ˚C	0.19	38	Y	–
Nc1ncnc(N2CCCC(CCC(=O)O)C2)c1Cl (stereo not drawn) [REAL250003296134]	0.65	0.34 ˚C	0.09	18	Y	1-BDC [2, 3]: 0.09; PanDDA hit? [2, 5]: TRUE; Modeled? [2, 6]: TRUE
CN(CC(=O)O)C(=O)c1ccc2n[nH]c(=O)n2c1 [REAL250003774401]	−0.3	0 ˚C	0.16	32	Y	–
CC(c1ccc(Cl)c(Cl)c1)S(=O)(=O)Cc1cn[nH]c1 (stereo not drawn) [ZINC000905245728]	−0.2	–	–	–	–	–
CN(C(=O)CN1CCNC(=O)C1)c1ccc(-c2nccs2)cc1 [ZINC000910053700]	−0.73	–	–	–	–	–
Cc1nc2c(C(=O)OCc3ccnc(N(C)C)c3)ccnc2[nH]1 [ZINC000924094620]	0.62	–	–	–	–	–
Cn1cnc(C(=O)NCC2CCN2C(=O)c2ncnc3[nH]ccc23)c1 (stereo not drawn) [ZINC000949397098]	0.3	0.1 ˚C	–	–	–	–

SMILES	Spearman est (compound concentration vs apparent Tm) [1]	DSF max dTma [1]	1-BDC [2, 4]	Refined occupancy ([2]; crystal soaking of Mac1)	HIT* [2]	also measured
CN1C(=O)[C@H]2CN(C(=O)c3ncnc4[nH]ccc34)C[C@H]2C1=O [ZINC001119059028]	−0.58	0 ˚C	–	–	–	–
Nc1nc(N)c2ncn(C3CN(C(=O)Cc4cccnc4)C3)c2n1 [ZINC001156036512]	0.06	0.61 ˚C	–	–	–	–
NC(=O)c1ccc(CCSc2cccc(F)c2)cc1 [ZINC001165768885]	−0.73	–	–	–	–	–
Cc1ccccc1CNc1ncnc(-c2ccccc2)n1 [ZINC001184571635]	0.82	–	–	–	–	–
Clc1cc2c(N3CCCC(c4nnc[nH]4)C3)ncnc2[nH]1 (stereo not drawn) [ZINC001187497156]	0.32	–	–	–	–	–
CNS(=O)(=O)c1cccc(-c2ncnc3[nH]c4ccccc4c23)c1 [ZINC001240776402]	−0.29	0.27 ˚C	–	–	–	–
O=C1CCCN1Cc1cccc(N2C(=O)N[C@@H](CO)C2=O)c1 [ZINC001320848619]	0.18	0.2 ˚C	–	–	–	–
O=C(c1ncnc2[nH]ccc12)N1CC(n2cncn2)C1 [ZINC001327823432]	0.54	0.66 ˚C	–	–	–	–
O=C(c1ncnc2[nH]ccc12)N1CC(n2ccnn2)C1 [ZINC001335091110]	−0.36	0.04 ˚C	–	–	–	–
CN(Cc1ncc(Cl)n1C)c1ncnc(N)n1 [ZINC001337833291]	0.82	–	–	–	–	–
CN(Cc1nnc2c(=O)[nH]ccn12)C(=O)COC1CC1 [ZINC001364630288]	0.73	–	–	–	–	–
Nc1ncc(S(=O)(=O)N2CCC2c2cccc(F)c2)cn1 (stereo not drawn) [ZINC001365141527]	−0.66	0 ˚C	–	–	–	–
CC(C(=O)N1CC(C(N)=O)C1)n1cnc2c(N)ncnc21 (stereo not drawn) [ZINC001434309614]	0.08	0.26 ˚C	–	–	–	–
O=c1[nH]ccn2c(CSc3nc4ccccc4s3)nnc12 [ZINC001458791015]	0.66	–	–	–	–	–
O=c1[nH]nc(C2CCCN(c3ncnc4[nH]c(Cl)cc34)C2)o1 (stereo not drawn) [ZINC001559178387]	−0.22	–	–	–	–	–
Nc1ncnc(SCCc2cccc(Cl)c2Cl)n1 [ZINC001641481086]	0.6	–	–	–	–	–
Cc1cc(C)nc(CSc2nnc3c(=O)[nH]c4ccccc4n23)c1 [ZINC001652467570]	0.44	–	–	–	–	–

— paper PMC9926234, “Iterative computational design and crystallographic screening identifies potent inhibitors targeting the Nsp3 macrodomain of SARS-CoV-2” (Proceedings of the National Academy of Sciences of the …, 2023)
